Measurements published in PMC4436800 (Frontiers in Neuroscience, 2015).

Each compound was assayed against T1, Rhopr5HTR2b (R. prolixus serotonin type 2b receptor) (Rhodnius prolixus, UniProt A0A0H4TRR1) (assay: aequorin calcium luminescence assay, agonist dose-response in transfected CHOK1-aeq cells).
T1 construct: gene 5HT-R2; complete open reading frame (Genbank KP325472) in pcDNA3.1, transiently expressed in CHOK1-aeq cells
T1 sequence (A0A0H4TRR1 1-703): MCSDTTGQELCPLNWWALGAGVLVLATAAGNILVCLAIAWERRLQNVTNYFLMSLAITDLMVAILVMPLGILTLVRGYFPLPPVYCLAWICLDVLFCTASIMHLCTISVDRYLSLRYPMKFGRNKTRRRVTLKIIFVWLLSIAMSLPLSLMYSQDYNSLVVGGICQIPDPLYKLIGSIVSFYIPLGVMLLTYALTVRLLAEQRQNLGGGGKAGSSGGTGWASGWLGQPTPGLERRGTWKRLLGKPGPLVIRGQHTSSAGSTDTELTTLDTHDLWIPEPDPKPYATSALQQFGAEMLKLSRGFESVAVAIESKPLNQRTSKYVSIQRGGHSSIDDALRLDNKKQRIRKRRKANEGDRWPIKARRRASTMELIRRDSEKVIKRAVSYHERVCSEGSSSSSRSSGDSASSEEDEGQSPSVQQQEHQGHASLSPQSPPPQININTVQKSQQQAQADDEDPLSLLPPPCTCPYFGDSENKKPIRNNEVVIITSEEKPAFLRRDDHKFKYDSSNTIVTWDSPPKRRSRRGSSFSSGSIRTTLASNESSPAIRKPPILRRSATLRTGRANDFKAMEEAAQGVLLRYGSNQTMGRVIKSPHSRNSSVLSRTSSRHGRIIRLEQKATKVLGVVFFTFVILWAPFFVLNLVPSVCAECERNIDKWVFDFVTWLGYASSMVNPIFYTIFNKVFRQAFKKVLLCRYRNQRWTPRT
Assay type: cell-based

| SMILES | EC50 |
| --- | --- |
| CC(N)Cc1c[nH]c2ccc(O)cc12 (stereo not drawn) [alpha-methyl serotonin] | 3.2 µM |

What follows are compounds tested against T1, Rhopr5HTR2b (R. prolixus serotonin type 2b receptor) (assay: aequorin luminescence, inhibition of […] serotonin response by […] antagonist).
Assay type: cell-based

| SMILES | % inhibition at 10 μM (range for all five antagonists) |
| --- | --- |
| O=C(CCCN1CCC2(CC1)C(=O)NCN2c1ccccc1)c1ccc(F)cc1 [spiperone] | ~ 70–50 % inhibition at 10 μM (range for all five antagonists) |
| CN1CCN2c3ccccc3Cc3ccccc3C2C1 (stereo not drawn) [mianserin] | ~ 70–50 % inhibition at 10 μM (range for all five antagonists) |
| CN1CCC(=C2c3ccccc3C=Cc3ccccc32)CC1 [cyproheptadine] | ~ 70–50 % inhibition at 10 μM (range for all five antagonists) |
| CC(C)NCC(O)COc1cccc2ccccc12 (stereo not drawn) [propranolol] | ~ 70–50 % inhibition at 10 μM (range for all five antagonists) |
| O=C(c1ccc(F)cc1)C1CCN(CCn2c(=O)[nH]c3ccccc3c2=O)CC1 [ketanserin] | ~ 70–50 % inhibition at 10 μM (range for all five antagonists) |
